pEC50, pKi: −log10 of the molar value.
Assays:
Adenosine receptor A1 = biological target: T1, Adenosine receptor A1 (Homo sapiens, UniProt P30542); assay: Displacement of […] from human adenosine A1 receptor expressed in CHO cells; type: cell-based
T1 sequence (P30542 whole entry): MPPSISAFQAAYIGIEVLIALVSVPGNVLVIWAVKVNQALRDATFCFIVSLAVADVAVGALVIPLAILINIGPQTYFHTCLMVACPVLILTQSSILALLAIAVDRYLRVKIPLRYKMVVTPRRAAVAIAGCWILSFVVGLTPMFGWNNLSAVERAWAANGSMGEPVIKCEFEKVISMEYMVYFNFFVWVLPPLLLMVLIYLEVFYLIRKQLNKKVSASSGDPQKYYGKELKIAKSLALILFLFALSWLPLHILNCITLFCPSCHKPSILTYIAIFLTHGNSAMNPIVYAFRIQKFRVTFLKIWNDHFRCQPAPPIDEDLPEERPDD

Adenosine receptor A3 = biological target: T2, Adenosine receptor A3 (Homo sapiens, UniProt P0DMS8); assay: Displacement of [125I]I-AB-MECA from human adenosine A3 receptor expressed in CHO cells; type: cell-based
T2 sequence (P0DMS8 whole entry): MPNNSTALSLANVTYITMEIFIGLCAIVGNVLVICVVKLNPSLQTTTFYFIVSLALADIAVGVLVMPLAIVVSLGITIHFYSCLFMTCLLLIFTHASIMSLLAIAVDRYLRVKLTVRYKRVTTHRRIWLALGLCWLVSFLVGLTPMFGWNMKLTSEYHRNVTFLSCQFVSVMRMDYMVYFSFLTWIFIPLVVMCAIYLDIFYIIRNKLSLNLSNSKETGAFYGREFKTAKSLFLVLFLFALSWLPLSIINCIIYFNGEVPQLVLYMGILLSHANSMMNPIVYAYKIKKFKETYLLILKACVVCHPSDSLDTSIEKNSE

[1] = biological target: T3, Adenosine receptor A2b (Homo sapiens) (UniProt P29275); assay: Agonist activity at human adenosine A2B receptor expressed in CHO cells assessed as stimulation of cAMP production at 10 uM; type: functional, cell-based
T3 sequence (whole entry): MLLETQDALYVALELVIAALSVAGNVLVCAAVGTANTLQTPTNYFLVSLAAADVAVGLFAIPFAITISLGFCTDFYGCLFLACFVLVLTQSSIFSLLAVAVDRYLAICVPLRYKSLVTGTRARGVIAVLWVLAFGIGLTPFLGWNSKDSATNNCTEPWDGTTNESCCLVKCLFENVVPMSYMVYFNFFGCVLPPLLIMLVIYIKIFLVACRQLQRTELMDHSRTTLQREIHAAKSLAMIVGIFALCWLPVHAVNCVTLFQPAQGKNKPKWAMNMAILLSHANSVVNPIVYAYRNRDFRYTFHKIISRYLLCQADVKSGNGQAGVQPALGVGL

[2] = biological target: T4, Adenosine receptor A3 (Homo sapiens) (UniProt P0DMS8); assay: Maximum efficacy at human recombinant adenosine A3 receptor expressed in CHO cells assessed as inhibition of cAMP production at 10 uM relative to NECA; type: functional, cell-based
T4 sequence (whole entry): T2 sequence (P0DMS8 whole entry)

Adenosine receptor A2a = Adenosine receptor A2a (Homo sapiens, UniProt P29274); assay: biochemical
Description: Displacement of [3H]CGS-21680 from human adenosine A2A receptor expressed in CHO cells

Adenosine receptor A2b = biological target: T5, Adenosine receptor A2b (Homo sapiens, UniProt P29275); assay: Agonist activity at human adenosine A2B receptor expressed in CHO cells assessed as stimulation of cAMP production
T5 sequence (P29275 whole entry): T3 sequence (whole entry)

Adenosine receptor A2a, sequence (P29274 whole entry): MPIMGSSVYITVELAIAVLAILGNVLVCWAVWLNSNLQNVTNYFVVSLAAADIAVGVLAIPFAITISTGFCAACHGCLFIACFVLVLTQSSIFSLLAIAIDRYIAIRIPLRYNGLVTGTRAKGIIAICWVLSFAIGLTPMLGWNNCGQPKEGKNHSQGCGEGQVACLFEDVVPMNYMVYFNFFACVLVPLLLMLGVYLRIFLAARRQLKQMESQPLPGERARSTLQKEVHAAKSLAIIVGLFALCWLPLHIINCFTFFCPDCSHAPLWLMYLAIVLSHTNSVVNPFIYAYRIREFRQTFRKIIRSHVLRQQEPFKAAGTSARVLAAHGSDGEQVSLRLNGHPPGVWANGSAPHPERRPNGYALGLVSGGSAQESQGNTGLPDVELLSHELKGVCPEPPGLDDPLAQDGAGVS

Row | SMILES | pKi (Adenosine receptor A1) | pKi (Adenosine receptor A3) | Activity [1] [%] | Efficacy [2] [%] | pKi (Adenosine receptor A2a) | pEC50 (Adenosine receptor A2b)
1 | Nc1nc(OCCCCc2ccccc2)nc2c1ncn2[C@@H]1O[C@H](CO)[C@@H](O)[C@H]1O | 5.69 | 6.45 | 3 | 37 | 6.28 | –
2 | Nc1nc(OCCc2ccccc2)nc2c1ncn2[C@@H]1O[C@H](CO)[C@@H](O)[C@H]1O | 6.66 | 7.27 | – | 71 | 8.03 | 5.46
3 | CCNC(=O)[C@H]1O[C@@H](n2cnc3c(NC(=N)N)ncnc32)[C@H](O)[C@@H]1O | – | – | – | 100 | – | –
4 | Nc1nc(OCCc2cccs2)nc2c1ncn2[C@@H]1O[C@H](CO)[C@@H](O)[C@H]1O | 6.76 | 7.03 | – | 80 | 7.96 | 5.75
5 | Nc1nc(OCCc2c[nH]c3ccccc23)nc2c1ncn2[C@@H]1O[C@H](CO)[C@@H](O)[C@H]1O | 6.83 | 6.63 | – | 17 | 7.35 | 6.52
6 | Nc1nc(OCCc2ccc(F)cc2)nc2c1ncn2[C@@H]1O[C@H](CO)[C@@H](O)[C@H]1O | 6.33 | 6.95 | 11 | 74 | 7.25 | –
7 | Nc1nc(OCCc2cccc(F)c2)nc2c1ncn2[C@@H]1O[C@H](CO)[C@@H](O)[C@H]1O | 6.51 | 6.92 | 64 | 50 | 7.16 | –
8 | CCOc1nc(N)c2ncn([C@@H]3O[C@H](CO)[C@@H](O)[C@H]3O)c2n1 | 5.58 | 6.25 | -1 | 99 | 6.44 | –
9 | Nc1nc(OCCCc2ccccc2)nc2c1ncn2[C@@H]1O[C@H](CO)[C@@H](O)[C@H]1O | 6.02 | 7.18 | 29 | 42 | 6.30 | –
10 | Nc1nc(OCCc2ccsc2)nc2c1ncn2[C@@H]1O[C@H](CO)[C@@H](O)[C@H]1O | 6.55 | 7.00 | 9 | 62 | 7.88 | –
11 | C[C@@H](CCOc1nc(N)c2ncn([C@@H]3O[C@H](CO)[C@@H](O)[C@H]3O)c2n1)c1ccccc1 | 5.81 | 6.51 | 13 | 18 | 6.38 | –
12 | Nc1nc(OCCc2cc3ccccc3[nH]2)nc2c1ncn2[C@@H]1O[C@H](CO)[C@@H](O)[C@H]1O | 6.71 | 6.29 | 49 | 37 | 6.43 | –

Next, values leading:

Row | pKi (Adenosine receptor A1) | pKi (Adenosine receptor A3) | Activity [1] [%] | Efficacy [2] [%] | pKi (Adenosine receptor A2a) | pEC50 (Adenosine receptor A2b) | SMILES
13 | 6.48 | 7.11 | 12 | 45 | 7.24 | – | Nc1nc(OCCc2ccccc2F)nc2c1ncn2[C@@H]1O[C@H](CO)[C@@H](O)[C@H]1O
14 | 6.51 | 6.92 | – | 24 | 6.35 | 6.05 | Nc1nc(OCCc2c[nH]c3ccc(O)cc23)nc2c1ncn2[C@@H]1O[C@H](CO)[C@@H](O)[C@H]1O
15 | 6.45 | 6.63 | – | 1 | 6.30 | 6.44 | Nc1nc(OCCc2c[nH]c3ccc(Br)cc23)nc2c1ncn2[C@@H]1O[C@H](CO)[C@@H](O)[C@H]1O
16 | 6.68 | 6.85 | 43 | -8 | 6.60 | – | Nc1nc(OCCc2c[nH]c3c(Br)cccc23)nc2c1ncn2[C@@H]1O[C@H](CO)[C@@H](O)[C@H]1O
17 | 6.35 | 6.59 | 16 | -5 | 7.40 | – | Nc1nc(OCCc2c[nH]c3cccc(Br)c23)nc2c1ncn2[C@@H]1O[C@H](CO)[C@@H](O)[C@H]1O
18 | 7.13 | 7.05 | 40 | 58 | 6.56 | – | N=C(N)Nc1nc(OCCc2c[nH]c3ccccc23)nc2c1ncn2[C@@H]1O[C@H](CO)[C@@H](O)[C@H]1O
19 | – | – | – | 2 | 7.53 | 6.67 | Nc1nc(OCCc2c[nH]c3cc(Cl)ccc23)nc2c1ncn2[C@@H]1O[C@H](CO)[C@@H](O)[C@H]1O

— ChEMBL document CHEMBL1144471, “Structure-activity relationships of 2,N(6),5'-substituted adenosine derivatives with potent activity at the A2B adenosine receptor” (J Med Chem, 2007)
